Reference: patent US8575170B2, “Flurbiprofen analogs and methods of use in treating cancer” (The Regents of the Unversity of Colorado, a body corporate, priority 2010, dated 2013)
pIC50: −log10 of the molar value. Read-outs that look alike come from different tables or passages of the source.

Experiments:
H2122 = assay: MTT cell viability, H2122 lung carcinoma cell line; type: cell-based; conditions: for pIC50: Homo sapiens
Procedure: (§1) The ability of the flurbiprofen analog compounds of the invention to inhibit cancer cell growth and survival (viability) in a variety of cancer lines was examined in a standard MTT assay for cell viability, as detailed in Example 2.
The IC50 values given in Tables 1-4 were measured using the B1031 ([…]) compound) shown in Section IIB above. To confirm the generality of the results with respect to other fluribprofen analogs prepared in accordance with the invention, IC50 values for the other 11 analog compounds given in Section IIB were similarly determined for the H2122 lung carcinoma cell line.
(§2) The studies reported in Tables 1-3 above were carried out by incubating the cells in the test compound for four days, under standard cell-culture conditions, and measuring cell survival on day 5 (see Example 2).
(§3) Cell growth and survival following treatment with N—[(S)-2-Fluoro-α-methyl-4-biphenylacetyl]-[L-(4-phenylphenyl)alanine]-N-(2,2,6,6-tetramethyl-4-piperidinyl)amide (GCBH-110=B1031; (S)-Fmba-L-Bip-Atmp) were measured by a rapid colorimetric assay based on the tetrazolium salt MTT (3-(4,5-dimethylthiazol-2-yl)-2,5-diphenyl tetrazolium bromide) (Mosmann, J. Immunol. Methods 65: 55-63, 1983, with minor modifications).
Briefly, approximately 1,000-5,000 cancer cells from 15 different cancer cells lines were plated in 100 μL of growth medium in 96-well flat-bottomed microtiter plates. Cells were incubated overnight to allow recovery. Compounds to be tested were added to the cells in triplicate in a range of concentrations and the cells were incubated at 37° C., 5% CO2, with 100% humidity. Control cells were treated in the same way without antagonists. […] Plates were incubated for 4 days, allowing sufficient time for cell replication and compound-induced cell death to occur. On day 5, 25 μL of a 2 mg/mL solution of MTT (Sigma) dissolved in RMPI-1640 was added to each well. The plate was incubated for 4 h at 37° C. The supernatant liquid was removed and the blue formazan complex was dissolved by adding 100 μL of 0.02 N HCl in 75% isopropanol to all wells. Absorbance was immediately determined using a scanning multiwell plate reader.

H661 = assay: MTT cell viability, H661; type: cell-based; conditions: Homo sapiens, NCI-H661, 96 h; Large Cell lung cell line H661; 4 days incubation
Procedure: as §1, §2, §3
(§4) Briefly, approximately 1,000-5,000 cancer cells from 15 different cancer cells lines were plated in 100 μL of growth medium in 96-well flat-bottomed microtiter plates. Cells were incubated overnight to allow recovery. Compounds to be tested were added to the cells in triplicate in a range of concentrations and the cells were incubated at 37° C., 5% CO2, with 100% humidity. Control cells were treated in the same way without antagonists. […] Absorbance was immediately determined using a scanning multiwell plate reader.

H460b = assay: MTT cell viability, H460b; type: cell-based; conditions: 96 h; Large Cell lung cell line H460b; 4 days incubation
Procedure: as §1, §2, §3, §4

H1334 = assay: MTT cell viability, H1334; type: cell-based; conditions: 96 h; Large Cell lung cell line H1334; 4 days incubation
Procedure: as §1, §2, §3, §4

H226 = assay: MTT cell viability, H226; type: cell-based; conditions: Homo sapiens, NCI-H226, 96 h; Squamous Mesothelioma lung cell line H226; 4 days incubation
Procedure: as §1, §2, §3, §4

H719 = assay: MTT cell viability, H719; type: cell-based; conditions: 96 h; SCLC lung cell line H719; 4 days incubation
Procedure: as §1, §2, §3, §4

S84 = assay: MTT cell viability, S84; type: cell-based; conditions: Head and neck cancer cell line S84
Procedure: as §1
(§5) A similar study was conducted on 14 […] cancer cell lines, identified in Table 2.
as §3
(§6) Briefly, approximately 1,000-5,000 cancer cells from 15 different cancer cells lines were plated in 100 μL of growth medium in 96-well flat-bottomed microtiter plates. Cells were incubated overnight to allow recovery. Compounds to be tested were added to the cells in triplicate in a range of concentrations and the cells were incubated at 37° C., 5% CO2, with 100% humidity. Control cells were treated in the same way without antagonists. […] Plates were incubated for 4 days, allowing sufficient time for cell replication and compound-induced cell death to occur. […] Absorbance was immediately determined using a scanning multiwell plate reader. […]

MSK922 = assay: MTT cell viability, MSK922; type: cell-based; conditions: Head and neck cancer cell line MSK922
Procedure: as §1, §5, §3, §6

UMSCC22A = assay: MTT cell viability, UMSCC22A; type: cell-based; conditions: Head and neck cancer cell line UMSCC22A
Procedure: as §1, §5, §3, §6

UMSCC2 = assay: MTT cell viability, UMSCC2; type: cell-based; conditions: UM-SCC2; Head and neck cancer cell line UMSCC2
Procedure: as §1, §5, §3, §6

Panc-504 = assay: MTT cell viability, Panc-504; type: cell-based; conditions: Pancreatic cancer cell, 96 h; Pancreatic cancer cells Panc-504; 4 days incubation
Text: as §1
(§7) Similar results were obtained for the effect of the B1031 compound on the 14 pancreatic tumor cells lines shown in Table 3 below, where the dose dependent effect of the compound on survival of the pancreatic cancer cell lines is shown in FIG. 5.
as §2, §3
(§8) Briefly, approximately 1,000-5,000 cancer cells from 15 different cancer cells lines were plated in 100 μL of growth medium in 96-well flat-bottomed microtiter plates. Cells were incubated overnight to allow recovery. […] Absorbance was immediately determined using a scanning multiwell plate reader.

L35 = assay: MTT cell viability, L35; type: cell-based; conditions: Pancreatic cancer cell, 96 h; Pancreatic cancer cells L35; 4 days incubation
Text: as §1, §7, §2, §3, §8

Panc-1 = assay: MTT cell viability, Panc-1; type: cell-based; conditions: Homo sapiens, 96 h; Pancreatic cancer cells Panc-1; 4 days incubation
Text: as §1, §7, §2, §3, §8

Capan-2 = assay: MTT cell viability, Capan-2; type: cell-based; conditions: Homo sapiens, 96 h; Pancreatic cancer cells Capan-2; 4 days incubation
Text: as §1, §7, §2, §3, §8

WM375 = assay: MTT cell viability, WM375; type: cell-based; conditions: Melanoma cell line WM375
Text: as §1
The results for the several cell lines above were also consistent with IC50 values measured for two melanoma cell lines shown in Table 4 below.
as §3, §4

[1] = Solubility of flurbiprofen analog compounds; type: physicochemical; conditions: medium in which the compound is soluble, Table 5
H2122 cells = assay: Cell cycle phase distribution in H2122 cells; type: cell-based; conditions: six concentrations, 24, 48 and 72 hours, FIG. 10
Procedure: FIG. 10 is a plot showing the percentages of H122 cells G1, S, and G2 cycle at […], and 72 hours, as a function of B1031 concentration in the cell medium.
FIG. 10 provides an explanation of the time-dependent IC50 values observed in FIG. 7, and insight into the mechanism by which the compounds of the invention exert their anti-cancer effect. In the study shown in FIG. 10, H2122 cells were cultured in the presence of one of the six concentrations of the B1031 compound, as indicated in the figure. At time periods 24, 48, and 72 hours after incubation with the compound, cells from each of the six cultures (having increasing concentrations of the compound), were examined for percent cells in G1, S, or G2 cell phase.

[2] = system: MiaPaCa pancreatic carcinoma solid tumor xenograft; assay: MiaPaCa pancreatic carcinoma xenograft in nude mice; type: in vivo, athymic nude mice; conditions: 5 mg/kg/every day intraperitoneal, beginning on the eleventh day following implantation, FIG. 12
Procedure: Similar results were obtained when the treatment method was applied to animals having pancreatic carcinoma implants, as shown in FIG. 12.
In a second study, athymic nude mice were implanted subcutaneously with suspensions of approximately 2 million MiaPaCa pancreatic carcinoma cells, in Matrigel suspension. […] The compound was initially dissolved in dimethyl sulfoxide (DMSO) and diluted with medium. Tumor size was measured with a caliper three times per week, and tumor volume calculated as above. At autopsy, tumors were removed and weighed.

- pIC50 (H2122; NCI-H2122, 96 h, Adenocarcinoma lung cell line H2122, 4 days incubation, read-out: IC50): 6.82
- pIC50 (H2122; NCI-H2122, IC50 values for the H2122 lung carcinoma cell line, Table 5, read-out: H2122 In vitro): 6.82
- pIC50 (H661): 6.46
- pIC50 (H460b): 6.40
- pIC50 (H1334): 6.40
- pIC50 (H226): 6.69
- pIC50 (H719): 5.97
- pIC50 (Panc-504): 6.80
- pIC50 (Panc-1): 6.09
- Solubility [1]: 50% DMSO
SMILES: C[C@H](C(=O)N[C@@H](Cc1ccc(-c2ccccc2)cc1)C(=O)NC1CC(C)(C)NC(C)(C)C1)c1ccc(-c2ccccc2)c(F)c1 [GCBH-110, N—[(S)-2-Fluoro-α-methyl-4-biphenylacetyl]-[L-(4-phenylphenyl)alanine]-N-(2,2,6,6-tetramethyl-4-piperidinyl)amide]
- activity in inhibiting H2122 cells relative to Aza-dC (H2122; H2122 lung cancer cell line, versus DNA demethylase inhibitor Aza-dC): many-fold more active
- activity in inhibiting H2122 cells relative to Syn275 (fold less active) (H2122; H2122 lung cancer cell line, versus HDACi Syn275): about 4 fold
- pIC50 (S84): 6.64
- pIC50 (MSK922): 6.39
- pIC50 (UMSCC22A): 6.37
- pIC50 (UMSCC2): 6.02
- pIC50 (L35): 6.10
- pIC50 (Capan-2): 5.82
- pIC50 (WM375): 6.55
- percent cells in G1, S, or G2 cell phase (H2122 cells): marked shift of the cell populations away from the S and G2 phases to the G1 phase
- inhibition of MiaPaCa pancreatic carcinoma tumor growth [2]: 66%
